Measured values published in ChEMBL document CHEMBL4229339, “Total syntheses and stereochemical reassignments of mollenines A and B” (Bioorg Med Chem Lett, 2018).
Calls of active or inactive are those of the source.

Legend:
Bacillus cereus = experiment: Antibacterial activity against Bacillus cereus at 5 uM; type: functional, organism-based
Homo sapiens = organism: Homo sapiens; experiment: Cytotoxicity against human HeLa/Fucci cells at 5 uM; type: functional, cell-based
Candida albicans = experiment: Antifungal activity against Candida albicans at 5 uM; type: functional, organism-based
Escherichia coli = experiment: Antibacterial activity against Escherichia coli at 5 uM; type: functional, organism-based

Measured: Activity

CC(C)=CC[C@@]12C[C@@H]3C(=O)N[C@@H](CC(C)C)C(=O)N3[C@@H]1Nc1ccccc12
inactive: all assays above

CC(C)=CCC12CC3C(=O)OC(CC(C)C)C(=O)N3C1Nc1ccccc12 (stereo in doubt; (+)-7)
inactive: all assays above

CC(C)=CC[C@@]12C[C@H]3C(=O)O[C@@H](CC(C)C)C(=O)N3[C@@H]1Nc1ccccc12
inactive: all assays above

CC(C)=CC[C@@]12C[C@H]3C(=O)O[C@@H](CC(C)C)C(=O)N3[C@@H]1N(C=O)c1ccccc12
inactive: all assays above

CC(C)=CC[C@@]12C[C@H]3C(=O)O[C@H](CC(C)C)C(=O)N3[C@@H]1Nc1ccccc12
inactive: all assays above

CC(C)=CCC12CC3C(=O)OC(CC(C)C)C(=O)N3C1Nc1ccccc12 (single isomer, unassigned; (+))
inactive: all assays above
